Reference: patent US12678438B2, “Treatment of cancer with CDK inhibitors” (THE TRUSTEES OF THE UNIVERSITY OF PENNSYLVANIA, priority 2019, dated 2026)

Assays:
[1] = tested on: AR-negative DU145 xenografts; experiment: DU145 mouse xenograft; assay type: in vivo; settings: 10 mg/kg b.i.d., four weeks
Experimental: In vivo efficacy studies were performed in accordance with protocols approved by the Institutional Animal Care and Use Committee (IACUC) at the University of Pennsylvania and in compliance with all regulatory standards. Four to five-week-old male NOD SCID gamma mice (Jackson Lab, 005557) were procured from Jackson Laboratory. In the VCaP experiment, 2×10^6 VCaP prostate cancer cells suspended in 80 μL of RPMI-1640 with 50% Matrigel (BD Biosciences) were implanted subcutaneously into the dorsal flank of the mice. The animals were castrated when the tumor volumes reached approximately 150 mm^3. […] Tumor growth was recorded using digital calipers and tumor volumes were estimated using the formula (π/6) (L×W^2), where L=length and W=width of tumor. Body weight during the study was also monitored. At the end of the treatment regimen the mice were sacrificed and were extracted for further analysis.
Xenograft tumor pieces were fixed in 4% of formaldehyde for 48 h and paraffin embedded. Paraffin embedded sections from the tumors of treated and untreated mice were deparaffinized, rehydrated and subjected to epitope retrieval stained with a phospho-MED1 antibody (1:4000/1:2000), anti-PSA antibody (1:1000), anti-Ki67 (1:500), or anti-cleaved caspase3 antibody (1:1000) followed by peroxidase-based detection and counterstaining with hematoxylin using the Leica Bond Rxm system. Photographs were taken on a Leica DMI6000B inverted light and fluorescent microscope with a 20× objective. images were assessed and quantified in ImageJ.

p-MED1 (p-T1457 MED1) [2] = experiment: Immunoblot of p-MED1 in AR negative RWPE and DU145 cells; assay type: cell-based, human; settings: RWPE and DU145, highest tested concentration
Experimental: Cell lysates were prepared with RIPA buffer (Boston Bioproducts, BP-115DG)-10 mM Tris-HCl pH 7.5, 1 mM EDTA, 400 mM NaCl, 0.5% NP-40 and 1 mM DTT, supplemented with protease inhibitor cocktail (Pierce, A32965) and phosphatase inhibitor (Thermo, 1861280). For immunoblotting 200 μg total protein extract was boiled in sample buffer and 15-25 μg aliquots were separated by SDS-PAGE and transferred onto Polyvinylidene Difluoride membrane (GE Healthcare, IPVH00010). The membrane was incubated for one hour in blocking buffer [Tris-buffered saline, 0.1% Tween (TBS-T), 5% nonfat dry milk followed by overnight incubation on a rocker at 4° C. with the primary antibody. Following a wash with TBS-T, the blot was incubated with horseradish peroxidase-conjugated secondary antibody for 2 hrs on a rocker at room temperature. The blots were washed again and signals were visualized using enhanced chemiluminescence system as per manufacturer's protocol (GE Healthcare) or Kwik Quant Imager (Kindle Biosciences). […]

DU145 cells = experiment: RNA-seq gene expression profiling; assay type: cell-based, human; settings: DU145, 100 nM THZ1, 24 h
Experimental: (§1) RNA-seq libraries were constructed using the TruSeq sample Prep Kit V2 (Illumina) according to the manufacturer's instructions. Briefly, 1 μg of purified RNA was poly-A selected and fragmented with fragmentation enzyme. After first and second strand synthesis from a template of poly-A selected/fragmented RNA, other procedures from end-repair to PCR amplification were performed according to the instructions given in the protocol. Libraries were purified and validated for appropriate size on a 2100 Bioanalyzer DNA 1000 chip (Agilent Technologies, Inc.). The DNA library was quantitated using Qubit and normalized to 4 nM prior to pooling. Libraries were pooled in an equimolar fashion and diluted to a final concentration of 1.8 pM. Library pools were clustered and run on Nextseq500 platform (Illumina Inc.) with single-end reads of 75 bases.
(§2) Single-end sequencing reads were demultiplexed using Illumina bcl2fastq, quality checked using FASTQC (bioinformatics.babraham ac uk/projects/fastqc), and aligned to the GRCh37 (release 27) genome using the STAR v2.5.1 aligner, with default settings. The read statistics generated by STAR v2.5.1 was used to ensure that the aligned reads in all samples were over 90% of the total reads. The transcripts were assembled using cufflinks and the count and FPKM tables were computed using cuffnorm. Principal component analysis on the FPKM values was used to cluster the samples for further quality check.
(§3) Genes differentially expressed between any two sets of treatment were determined using DESeq2 (bioconductor.org/packages/release/bioc/html/DESeq.html), a statistical tool that employs shrinkage estimates to compute fold changes. In all our calculations, the raw RNA-seq read counts from biological duplicates, for each treatment condition, was used as the input for DESeq2.

VCaP cells = experiment: RNA-seq gene expression profiling; assay type: cell-based, human; settings: 100 nM THZ1, 24 h
Experimental: as §1, §2, §3

LNCaP cells = experiment: RNA-seq gene expression profiling; assay type: cell-based, human; settings: 100 nM THZ1, 24 h
Experimental: as §1, §2, §3

p-MED1 (p-T1457 MED1) [3] = experiment: Immunoblot of p-MED1 in AR-positive PCa cell lines (VCaP, LNCaP, 22RV1); assay type: cell-based, human
Experimental: Cell lysates were prepared with RIPA buffer (Boston Bioproducts, BP-115DG)-10 mM Tris-HCl pH 7.5, 1 mM EDTA, 400 mM NaCl, 0.5% NP-40 and 1 mM DTT, supplemented with protease inhibitor cocktail (Pierce, A32965) and phosphatase inhibitor (Thermo, 1861280). For immunoblotting 200 μg total protein extract was boiled in sample buffer and 15-25 μg aliquots were separated by SDS-PAGE and transferred onto Polyvinylidene Difluoride membrane (GE Healthcare, IPVH00010). The membrane was incubated for one hour in blocking buffer [Tris-buffered saline, 0.1% Tween (TBS-T), 5% nonfat dry milk followed by overnight incubation on a rocker at 4° C. with the primary antibody. Following a wash with TBS-T, the blot was incubated with horseradish peroxidase-conjugated secondary antibody for 2 hrs on a rocker at room temperature. The blots were washed again and signals were visualized using enhanced chemiluminescence system as per manufacturer's protocol (GE Healthcare) or Kwik Quant Imager (Kindle Biosciences). Primary antibodies used in the immunoblotting (IB), immunoprecipitation (IP), and Chromatin Immunoprecipitation sequencing (ChIP-seq) assays are as follows: AR_IP, IB, ChIP-Seq (Millipore, 06-680); pS81-AR_IB (Millipore, 07-1375-EMD); RNA Pol II_IP, IB (Abcam, ab5408); ERG_IB (Abcam, a92513); PSA_IB (Dako, A0562); H3-acetyl K27_IP, IB, ChIP Seq (Abcam, ab32104) cPARP_IB (Cell Signaling Technology, 9541s); Cleaved caspase-3_IB (Cell Signaling Technology, 9664t); CDK7_IP, IB (Cell Signaling Technology, 2916s); CDK9_IP, IB (Cell Signaling Technology, 2316s); CDK12_IB (Cell Signaling Technology, 11973S); CDK13_IB (Sigma Cat. #ABE1860); Cyclin H_IB (Cell Signaling Technology, 2927T); HA_IP, IB (Cell Signaling Technology, 2367s); ERK1/2_IP, IB (Cell Signaling Technology, 9107s); phospho-ERK1/2_IB (Cell Signaling Technology, 9101s); phospho-Threonine_IB (Cell Signaling Technology, 9381s); PP2A alpha_IB (Abcam, ab32104); phospho-MED1_IB (Abcam, ab60950); Anti-GST_IB (Cell Signaling Technology, 2624); Anti-AKT_IB (Cell Signaling Technology, 9272); Anti-phosphoAKT_IB(Cell Signaling Technology, 4060); Anti-phospho-AR (Ser-515) _IB (Abeam, ab128250); Anti-RNA Pol 'LIB (Abeam, ab5408); Anti-phospho-pol II (Ser-5)_IB (Abeam, ab ab5095); Anti-phospho-CDK7 (Tlu-170) _IB (Millipore, ABS567); MED1_IP, IB, ChIP Seq (Bethyl, abA300-793A), Ki67_IHC (Cell Signaling Technology, 9661), and GAPDH (14C10), IB (Cell Signaling Technology, 3683s) for loading control.

## CN(C)C/C=C/C(=O)Nc1ccc(C(=O)Nc2cccc(Nc3ncc(Cl)c(-c4c[nH]c5ccccc45)n3)c2)cc1 [THZ1]
[1]; vs vehicle
  tumor Ki-67: lower Ki-67
  tumor apoptosis: increased apoptosis
  tumor p-MED1 levels: reduced p-MED1 levels
[1]; castrated mice
  tumor growth: tumor growth inhibition
p-MED1 (p-T1457 MED1) [2]
  p-MED1 or pS5-PolII levels: no such decrease in p-MED1 or pS5-PolII levels
DU145 cells
  genes down (RNA-seq): 190
  genes up (RNA-seq): 191
VCaP cells
  genes down (RNA-seq): 1203
  genes up (RNA-seq): 1325
LNCaP cells
  genes down (RNA-seq): 1695
  genes up (RNA-seq): 2612
p-MED1 (p-T1457 MED1) [3]; VCaP and LNCaP, dose and time course
  phosphorylation at Ser5 of RNA Pol II: reduced phosphorylation at Ser5 of RNA Poll
p-MED1 (p-T1457 MED1) [3]; VCaP and LNCaP, standard growth conditions
  p-MED1 levels, dose and time course: dose- and time-dependent decrease in p-MED1 levels
p-MED1 (p-T1457 MED1) [3]; VCaP, LNCaP, 22RV1, standard culture conditions, 24 h (THZ1 and LDC also with DHT stimulation)
  p-MED1 levels: reduced p-MED1 levels
